Earlier results on 2 compounds are cited in US10238626B2, “Therapeutic compounds” (ARIZONA BOARD OF REGENTS ON BEHALF OF ARIZONA STATE …, priority 2017, dated 2019).

For one data set, the target named is hRXRβ (Homo sapiens, UniProt P28702). To be noted: read-out: EC50 for the hRXRβ isoform; literature (Santin et al. 2009).
The target of data set [1] is hRXR. To be noted: Caco-2 cells; literature (Wagner et al. 2009).
Data set [2] relates to hRXR. To be noted: Caco-2 cells; literature (Wagner et al. 2009). This is another data set of the same source.

hRXRβ, sequence (P28702 whole entry, canonical isoform): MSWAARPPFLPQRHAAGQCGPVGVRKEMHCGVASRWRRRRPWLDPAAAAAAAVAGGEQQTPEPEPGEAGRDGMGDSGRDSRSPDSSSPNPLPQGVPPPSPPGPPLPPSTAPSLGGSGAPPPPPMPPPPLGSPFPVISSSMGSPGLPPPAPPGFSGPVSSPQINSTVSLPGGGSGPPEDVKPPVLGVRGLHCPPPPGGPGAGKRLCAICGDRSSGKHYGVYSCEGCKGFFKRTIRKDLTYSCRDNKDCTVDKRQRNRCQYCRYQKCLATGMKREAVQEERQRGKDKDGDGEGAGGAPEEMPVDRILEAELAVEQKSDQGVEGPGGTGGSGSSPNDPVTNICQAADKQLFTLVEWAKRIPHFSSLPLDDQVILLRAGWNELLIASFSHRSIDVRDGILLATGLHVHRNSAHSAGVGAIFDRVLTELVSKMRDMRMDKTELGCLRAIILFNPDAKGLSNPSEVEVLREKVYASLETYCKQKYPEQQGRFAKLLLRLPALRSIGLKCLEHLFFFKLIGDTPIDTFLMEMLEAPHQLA

The EC50 is the concentration needed to bring the measured effect to its halfway point. Turning to `Cc1cc2c(cc1-c1cc(/C=C/C(=O)O)ccc1O)C(C)(C)CCC2(C)C` [CD3254], the EC50 at hRXRβ is around 10 nM.

Usually Kd stands for the concentration at which binding is half-saturated. For the compound `C=C(c1ccc(C(=O)O)c(F)c1)c1cc2c(cc1C)C(C)(C)CCC2(C)C` [compound 3], on hRXR [1], the Kd is 12 nM. Also, the half-maximal effective concentration (EC50) in the data set on hRXR [2] is 43 nM.
